The values below come from patent US20160340704A1, “METHOD OF MAKING A BENZYLISOQUINOLINE ALKALOID (BIA) METABOLITE, ENZYMES THEREFORE” (VALORBEC SOCIÉTÉ EN COMMANDITE, priority 2014, published 2016).

Data set [1] in a line: Relative abundance of BIAs in culture supernatants and cell extracts. Type of data set: cell-based, Saccharomyces cerevisiae. The conditions noted are these: for fraction in which the BIA is mainly found (supernatant or cell extract): strains with heterologous enzymes. The procedure: Whole cell substrate feeding assays were used to test the function of each enzyme block individually and in combinations. To prepare the cells for the feeding assays, a colony of S. cerevisiae was inoculated in YNB-DO-GLU and incubated for 24 hours. Cultures were diluted to an OD600 of 0.8 into 6 ml of fresh YNB-DO-GLU and incubated for an additional 7 hours. Cells were harvested by centrifugation at 2000×g for 2 min. Supernatants were decanted and cells were suspended in 2 ml of Tris-EDTA (10 mM Tris-HCl, 1 mM EDTA, pH 8), containing 10 μM of one of the following feeding substrates: (R,S)-norlaudanosoline, (S)-reticuline, (S)-scoulerine or (S)-stylopine. Cells were incubated for 16 hours then harvested by centrifugation at 15000×g for 1 min. For BIA extraction from cells, the cell pellet was suspended in 500 μl methanol with ˜50 μl acid-washed glass beads and vortexed for 30 min. Cell extracts were clarified by centrifugation at 15000×g for 1 min and used directly for LC-MS analysis.
Detection of alkaloids in the sanguinarine biosynthetic pathway was performed by FT-MS using a 7T-LTQ FT ICR instrument (Thermo Scientific, Bremen, Germany). Alkaloids were separated by reverse phase HPLC (Perkin Elmer SERIES 200 Micropump, Norfolk, Conn.) using an Agilent Zorbax™ Rapid Resolution HT C18 2.1*30 mm, 1.8 micron column. Solvent A (0.1% acetic acid) and solvent B (100% acetonitrile) were used in a gradient elution to separate the metabolites of interest as follows: 0-1 min at 100% A, 1-6 min 0 to 95% B (linear gradient), 7-8 min 95% B, 8-8.2 min 100% A, followed by a 1 min equilibration at 100% A. Three microliters of either cell extract or supernatant fraction were loaded on the HPLC column run at a flow rate of 0.25 ml/min. Dilutions in methanol were performed to keep alkaloid concentrations within the range of standard curve values and avoid saturating FT signals. Following LC separation, metabolites were injected into the LTQ-FT-MS (ESI source in positive ion mode) using the following parameters: resolution, 100000; scanning range, 250 to 450 AMU; capillary voltage, 5 kV; source temperature, 350° C.; AGC target setting for full MS were set at 5×10^5 ions. Identification of alkaloids was done using retention time and exact mass (<2 ppm) of the monoisotopic mass of the protonated molecular ion [M+H]^+. LC-FT-MS data were processed using the freely available program Maven^56. When available authentic standards were used to confirm the identity of the BIA intermediates (using HPLC retention times and exact masses) and to quantify sanguinarine alkaloids. When unavailable, we assumed equal ionization efficiency between an intermediate and the closest available quantifiable alkaloid (m/z 302 and m/z=316: reticuline; cheilanthifoline: stylopine).
To confirm functional expression of enzymes, plasmids expressing each of the three blocks were individually transformed into S. cerevisiae and cultures of the strains were supplemented with either (R,S)-norlaudanosoline, (S)-reticuline, (S)-scoulerine or (S)-stylopine. Functional expression was verified by detection of the expected end products. As negative controls, yeast strains lacking enzyme blocks were incubated with each of the pathway intermediate to evaluate substrate recovery and to assess the relative proportion recovered in cellular extracts versus culture supernatants.

The subject of a further data set is cheilanthifoline. Kind of data set: CYP719 Ring A closure of cheilanthifoline to stylopine in GC1333. Type of data set: cell-based, Saccharomyces cerevisiae. How it is done:
FIG. 11A-B: showing conversion of (S)-cheilanthifoline (FIG. 11A) or (S)-nandinine (FIG. 11B) to (S)-stylopine by purchased CYP719s. Plasmids harboring CYP719s were transformed into GC1333 containing an integrated PsCPR. Strains were incubated with the appropriate BIA overnight, and then total BIAs were extracted and total molar ratios were compared. PsSPSΔN was used as a control.
The 10 CYP719s with 95% activity on Ring A of scoulerine and the 10 CYP719s with activity on Ring B of scoulerine were tested for activity on cheilanthifoline and nandinine, respectively, in order to generate a branched stylopine synthesis pathway. […] CYP719s PsCFS and EX101, capable of converting >98% of scoulerine to cheilanthifoline and nandinine, respectively, were incubated with scoulerine. After 16 h, cells were pelleted and the supernatant fraction was collected. The supernatant was then applied to fresh yeast strains in order to supplement them with either TE containing nandinine or cheilanthifoline as necessary.

“Also recorded” adds a separate entry of the source.

In the case of `Oc1ccc(CC2NCCc3cc(O)c(O)cc32)cc1O` (racemic) [(R,S)-norlaudanosoline], the “share of fed BIA found in the cell extract after 16 hours of incubation” value in data set [1] (wild-type / negative control cells, 16 hours) came out at 10%. For the same molecule, the “share of fed BIA found in the cell extract, initially” value in data set [1] (wild-type cells, 0 hours) worked out at 3%. Regarding `c1cc2c(c3c1C[C@H]1c4cc5c(cc4CCN1C3)OCO5)OCO2` [(S)-stylopine], in data set [1] (16 hours), the “fraction in which the BIA is mainly found (supernatant or cell extract)” value (“fraction” below) is given as “predominantly found in the cell extract; also recorded: mostly found in the cellular extract fraction”.

Consider `COc1cc2c(cc1O)C1Cc3ccc4c(c3CN1CC2)OCO4` (stereo not drawn) [Cheilanthifoline, cheilanthifoline], for which the “fraction” value in data set [1] (16 hours) is recorded as “mainly found in the supernatant”. As for `C[N@@+]12CCc3cc4c(cc3[C@@H]1Cc1ccc3c(c1C2)OCO3)OCO4` [N-methylstylopine], in data set [1] (Block 3 feeding assay, 16 hours), the “share of BIA found in the culture supernatant” value is on record as “Approximately 55%”. As to `CN1Cc2c(ccc3c2OCO3)-c2ccc3cc4c(cc3c21)OCO4` [dihydrosanguinarine], in data set [1] (16 hours), the “fraction” value is recorded as “mostly found in the cellular extract fraction”.

B1: EX42: CYP719 from Argemone mexicana, B1NF19.1, SEQ ID NO: 321 (protein, listed as Argemone mexicana)
chain: MEEKIMTNNSPWILTSSTTTTTTILLSLLFTIFIILRRNKSSSSKMVWPTGPKTLPIIGNMNILGGTALHVVLHNLAKTYGNVMTIWIGSWRPVIVVSDIDRAWEVLVNKSSDYSARDMPEITKLATADWKTISSSDSGPFWTNLRKGLQNVALSPQNLSSQSKFQERDIIKTIQNLKEEAKMNNGIVKPLDHLKKAMVRLISRLIYGQDFDNDEYVEEMHHTIEELIRVSGYARLAEAFYYAKYLPSHKKAVREVLQANQRVQNLVRPLLSLNSPTNTYLHFLRSQNYEDEVIIFAIFEAYLLGVDSTSSTTAWALAYLIREPNVQEKLYEELKNFTNDNDRKMVKFEDLNKLQYLQAVVKETMRMKPIAPLAIPHKACRETSLMGRKVNQGTRVMVNIYALHHNQNVWKEPYKFNPERFLQKNQDGVDGKAMEQSLLPFSAGMRICAGMELGKLQFSFALANLVNAFKWSCVSDGVFPDMSDQLGFVLLMKTPLEAGIVPRM
Take B1: the “conversion of cheilanthifoline to stylopine” value (from here on “conversion of cheilanthifoline”) in the data set with cheilanthifoline was over 98%.

B2: EX76: CYP719 from Nandina domestica, SEQ ID NO: 355 (protein, listed as Nandina domestica)
chain: MEESFWIVSATIVVVFVIATMFRKSSSISSKTEWPAGPKKLPVIGNLHQLGGDVLHVVLANLAKVYGTVMTVWVGSWKPMIVISDIDRAWEVLVNKSSDYSGRAMPEITEIISAKGKTISTSDSGPHWSNLRKGLQNVALSPHNIAAQSRFQESDITKMIKTLKQEAASNNGIVQPLDHLKKSTVRLISRLIFGQDFDDDEYVEAMHLAVEELIRVSGYARLAEAFYYAKYLPSHKRAVSEVWEANRRVKRIVKPRLSANPPPNCYLHFLSSQDYSEEMIIFAIFEAYLLGVDSTSSTTAWALGFLIREPKVQERLYQELKNCAGENGLIKVEDINKLPYLQAVLKETMRMKPIAPLAIPHKAVRETSLAGNKVEPGTRVMVNLYAIHHNPKVWIDPHKFKPERFLQGEENGGGNLKLMEQSLLPFSAGMRTCAGMELGKLQFGFSLANLVNAFQWDCAKKGMFPDMSDLLGFVLLMKTPLQAKIVPRGSPSINGY
Turning to B2, the “conversion of cheilanthifoline” value with cheilanthifoline is reported as over 98%.

B3: EX101: CYP719 from Stylophorum diphyllum, SEQ ID NO: 380 (protein, listed as Stylophorum diphyllum)
chain: MESLIDFSNPAKMEELMSNPWIITAITLAVVIIMMTIFRRKSSSMKWPKGPKTLPIIGNMHLFGGTDLHVVLYNIAKVYGNVMTIWIGSWRPVIVISDIERAWEVLVNKSSDYSARDMPEITKLISSDWKTISTSDAGAFWTNLRKGLQNVALSPHNLASQFQFQESDIKKLIETIKEEGAVNNGIVKPLDHLKKAMVRLISRLIFGQDFDNDKYVEGMHHAIEELIRVSGYARLAEAFYYAKYLPSHKKAVRDVEEANRRVQKLVRPFLSLNPPTNTYLHFLRSQNYSEEVIIFAIFEAYLLGVDSTSSTTAWALAFLIREPNVQEKLYQELKNFTVKNGRDMLKVEDINKLPYLQATIKETMRMKPIAPLAIPHKACRDTSLMGSKIDKGTRVMVNIYALHHNEKIWKEPFKFMPERFLQTEGEVNGKAMEQSFLPFSAGMRICAGMELGKLQFNFALANLVNAFKWSCVADGVLPDMSDQLGFVLVMKTPLEARITPRC
Consider B3, for which the “conversion of cheilanthifoline” value in the data set with cheilanthifoline is over 98%.

B4: EX96: CYP719 from Sanguinaria canadensis, SEQ ID NO: 375 (protein, listed as Sanguinaria canadensis)
chain: MEFEKIMMSNPWILAATTAVVFISITAIFFRRKSSSMEWPTGPKTLPIIGNMHLLGGTALHVVLHNFAKIYGNVMTIWIGSWRPVIVVSDIDRAWEVLVNKSSDYSARDMPEITKIISADWKTISTSDSGPFWTNLRKGLQNVALSPHNLAAQARFQERDISKMIETLKEEAALNNGIVKPLDHLKKATVRLISRLIYGQEFDNNKYVEDMHHAIEELIRVSGYARLAEAFYYAKYLPSHKKAVRDVEEANRRVKNLVRPFLSSNPPTNCYLHFLRTQNYPEEVIIFAIFEAYLLGVDSTSSTTAWALAFLVREPNVQEKLYQELKNFTTNNDRKMLKVEDINKLQYLQAVIKETMRMKPIAPLAIPHKACKETSLMGSKVDKGTRVMVNIYALHHNQKVWKEPYKFMPERFLETDNQDGNVGKAMEQSLLPFSAGMRICAGMELGKLQFTFSLANLVNAFKWSCVSDGVLPDMSDQLGFVLLMKNPLEARIVPRS
Take B4: the “conversion of cheilanthifoline” value in the data set on cheilanthifoline is over 98%.

B5: EX56: CYP719 from Chelidonium majus, SEQ ID NO: 335 (protein, listed as Chelidonium majus)
chain: MLLILIMDFRNSRSNLNPAKMEELMSDPWIITATTLAVVILLTTILRRKSSSMKWPKGPKTLPIIGNMHLFGGTDLHVVLYNIAKVYGNVMTIWIGSWRPVIVISDIERAWEVLVNKSSDYSARDMPEITKLISSDWKTISTSDAGAFWTNLRKGLQNVALSPHNLASQFQFQESDIKKLIETIKEEAAVNNGIVKPLDHLKKAMVRLISRLVFGQDFDNDEYVEGMHHAIEELIRVSGYARLAEAFYYAKYLPSHKKAVRDVEEANRRVQKLVRPFLSLNPPTNTYLHFLRSQNYSEEVIIFAIFEAYLLGVDSTSSTTAWALAFLIREPNVQEKLYQELKNFTVKNGRDMLKVEDINKLPYLQATIKETMRMKPIAPLAIPHKACRDTSLKGSKIDKGTRVMVNIYALHHNEKIWKEPFKFMPERFLQTEGENGKAMEQSFLPFSAGMRICAGMELGKLQFNFALANLVNAFKWSCVADGVLPDMSDQLGFVLVMKTPLEARITSRC
For B5, in the data set with cheilanthifoline, the “conversion of cheilanthifoline” value is over 98%.

B6: EX67: CYP719 from Glaucium flavum, SEQ ID NO: 346 (protein, listed as Glaucium flavum)
chain: MEMKSSVVFSYPAMEELFKSNPWVITGTTLAVLILMTTMFRKKSLSMKWPKGPKTLPIIGNMHLLGGTNLQVILHNMSKVYGNVMTIWIGSWRPVIVVSDIERAWEVLVNKSSDYSGRDMPEITKIISADWKTISTSDSGPHWTNLRKGLQNVALSPHNLAAQFQFQERDICKLIETLKEEAKLNNGIVKPLDHLKKATIRLISRLVFGQDFDNSKYVEDMHHAIEELIRVSGYARLADAFYYAKYLPSQKKAVRDVEEAQRRVQRLVRPFLSLNPPTNCYLHFLRSQNYSDEVIIFAIFEAYLLGVDSTSSTTAWALAFLVREPNVQEKLYQELKNFTAKNGREMLKVEDINKLPYLQAVIKETMRMKPIAPLAIPHKACRDTSLKGRKIDKGTQIMVNIYALHHNENVWKEPFKFMPERFLQTDQDVNGKAMDQSLLPFSAGMRICAGMELGKLQFSFSLANLLNTFQWSCVADGVLPDMSDQLGFVLLMKTPLEARITPRC
For the molecule B6, the “conversion of cheilanthifoline” value in the data set with cheilanthifoline was over 98%.
